# Results published in patent publication US9896522B2, “Solid phase fluorescence labeling reagents and uses thereof” (The Texas A&M University System, priority 2010, dated 2018).
# How the values were obtained:
# [1] = UV absorbance spectra and molar absorbance; assay type: physicochemical
# Experimental: UV absorbance spectra were recorded using a Beckman 168 photodiode detector during the HILIC separations. The eluent compositions at the time of detection were 26 mM NH4HCO2 74% ACN/water for APTS, 24 mM NH4HCO2 76% ACN/water for trisulfonamide 22 and 10 mM MOPS with 5 mM NaOH in 76% ACN/water for 33. Fluorescence spectra at different pH values were recorded on a Shimadzu RF-5301PC spectrofluorometer. The buffers used are tabulated below: UV absorbance and fluorescence spectra for the quantum yield determinations were acquired using a Varian 100 Bio UV-Vis spectrophotometer and a Varian Cary Eclipse fluorescence spectrometer, respectively. The samples were dissolved in a pH 9 0.1M aqueous sodium bicarbonate buffer.
# [2] = fluorescence emission spectra at different pH values; assay type: physicochemical; conditions: fluorescence emission spectrum
# Experimental: It was also developed to have pH-independent fluorescence properties which are important for CE applications. […] The molar absorbance and relative quantum yield values were also determined using Rhodamine 6G as a standard. UV absorbance spectra were recorded using a Beckman 168 photodiode detector during the HILIC separations. The eluent compositions at the time of detection were 26 mM NH4HCO2 74% ACN/water for APTS, 24 mM NH4HCO2 76% ACN/water for trisulfonamide 22 and 10 mM MOPS with 5 mM NaOH in 76% ACN/water for 33. Fluorescence spectra at different pH values were recorded on a Shimadzu RF-5301PC spectrofluorometer.
# [3] = buffer, pH 2; cited from earlier work
structure (smiles),measurement,setting,value
CN(CCS(=O)(=O)O)S(=O)(=O)c1cc(N)c2ccc3c(S(=O)(=O)N(C)CCS(=O)(=O)O)cc(S(=O)(=O)N(C)CCS(=O)(=O)O)c4ccc1c2c34 [compound 22],shift of λmax ex towards longer wavelength,[1]; relative to APTS,44 nm
same,λmax em,[2],540 nm
CCCCCCCCCCCC1(C)OCC(COCCCS(=O)(=O)[O-])O1.[Na+] (stereo not shown) [ALS],half life,[3],8 min
"Nc1cc(S(=O)(=O)O)c2ccc3c(S(=O)(=O)O)cc(S(=O)(=O)O)c4ccc1c2c43 [APTS, 8-Aminopyrene-1,3,6-trisulfonic acid, reference compound]",share of the maximum absorbance that can be used at 488 nm,[1]; excitation at 488 nm,about 4%
